Assay results from publication PMC4770715, “LIM kinase inhibitors disrupt mitotic microtubule organization and impair tumor cell proliferation” (Oncotarget, 2015).

How the values were obtained:
Assay in all cases: biochemical
Parameters in all cases: KINOMEscan active-site competition binding, percent of control (100 = no competition)
Details in all cases: competition binding, percent control
KIT(A829P) = KIT(A829P) (Homo sapiens, UniProt P10721, A829P)
ERK8 = target: T1, ERK8 (Homo sapiens, UniProt Q8TD08)
T1 construct: gene MAPK15

TGFBR1 = TGFBR1 (Homo sapiens, UniProt P36897)
TRKA = target: T2, TRKA (Homo sapiens, UniProt P04629)
T2 construct: gene NTRK1

PRKD2 = PRKD2 (Homo sapiens, UniProt Q9BZL6)
ACVR2B = ACVR2B (Homo sapiens, UniProt Q13705)
PLK2 = PLK2 (Homo sapiens, UniProt Q9NYY3)
PIM2 = PIM2 (Homo sapiens, UniProt Q9P1W9)
EPHB2 = EPHB2 (Homo sapiens, UniProt P29323)
CSK = CSK (Homo sapiens, UniProt P41240)
CAMKK2 = CAMKK2 (Homo sapiens, UniProt Q96RR4)
IKK-beta = target: T3, IKK-beta (Homo sapiens, UniProt O14920)
T3 construct: gene IKBKB

[1] = target: T4, JAK1(JH2domain-pseudokinase) (Homo sapiens, UniProt P23458)
T4 construct: JH2domain-pseudokinase

[2] = target: T5, JAK2(JH1domain-catalytic) (Homo sapiens, UniProt O60674)
T5 construct: JH1domain-catalytic

FGFR4 = FGFR4 (Homo sapiens, UniProt P22455)
EGFR(G719C) = EGFR(G719C) (Homo sapiens, UniProt P00533, G719C)
PKN1 = PKN1 (Homo sapiens, UniProt Q16512)
HPK1 = target: T6, HPK1 (Homo sapiens, UniProt Q92918)
T6 construct: gene MAP4K1

AURKB = AURKB (Homo sapiens, UniProt Q96GD4)
TIE2 = target: T7, TIE2 (Homo sapiens, UniProt Q02763)
T7 construct: gene TEK

STK36 = STK36 (Homo sapiens, UniProt Q9NRP7)
MEK6 = target: T8, MEK6 (Homo sapiens, UniProt P52564)
T8 construct: gene MAP2K6

NEK2 = NEK2 (Homo sapiens, UniProt P51955)

T1 sequence (Q8TD08 whole entry): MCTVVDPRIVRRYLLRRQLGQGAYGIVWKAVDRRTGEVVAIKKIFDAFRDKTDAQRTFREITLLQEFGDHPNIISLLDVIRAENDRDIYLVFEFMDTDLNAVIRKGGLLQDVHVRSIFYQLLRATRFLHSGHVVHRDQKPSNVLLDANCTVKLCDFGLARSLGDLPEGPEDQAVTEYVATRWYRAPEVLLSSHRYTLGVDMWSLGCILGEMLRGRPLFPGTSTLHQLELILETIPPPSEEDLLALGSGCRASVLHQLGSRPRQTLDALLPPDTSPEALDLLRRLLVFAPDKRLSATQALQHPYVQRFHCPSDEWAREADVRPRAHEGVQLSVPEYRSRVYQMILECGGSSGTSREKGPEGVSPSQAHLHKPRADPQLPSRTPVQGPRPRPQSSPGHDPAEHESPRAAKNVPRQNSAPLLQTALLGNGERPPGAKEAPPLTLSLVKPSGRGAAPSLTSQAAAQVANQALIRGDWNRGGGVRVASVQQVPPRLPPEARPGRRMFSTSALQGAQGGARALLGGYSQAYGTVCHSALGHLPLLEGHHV
T3 sequence (O14920 whole entry): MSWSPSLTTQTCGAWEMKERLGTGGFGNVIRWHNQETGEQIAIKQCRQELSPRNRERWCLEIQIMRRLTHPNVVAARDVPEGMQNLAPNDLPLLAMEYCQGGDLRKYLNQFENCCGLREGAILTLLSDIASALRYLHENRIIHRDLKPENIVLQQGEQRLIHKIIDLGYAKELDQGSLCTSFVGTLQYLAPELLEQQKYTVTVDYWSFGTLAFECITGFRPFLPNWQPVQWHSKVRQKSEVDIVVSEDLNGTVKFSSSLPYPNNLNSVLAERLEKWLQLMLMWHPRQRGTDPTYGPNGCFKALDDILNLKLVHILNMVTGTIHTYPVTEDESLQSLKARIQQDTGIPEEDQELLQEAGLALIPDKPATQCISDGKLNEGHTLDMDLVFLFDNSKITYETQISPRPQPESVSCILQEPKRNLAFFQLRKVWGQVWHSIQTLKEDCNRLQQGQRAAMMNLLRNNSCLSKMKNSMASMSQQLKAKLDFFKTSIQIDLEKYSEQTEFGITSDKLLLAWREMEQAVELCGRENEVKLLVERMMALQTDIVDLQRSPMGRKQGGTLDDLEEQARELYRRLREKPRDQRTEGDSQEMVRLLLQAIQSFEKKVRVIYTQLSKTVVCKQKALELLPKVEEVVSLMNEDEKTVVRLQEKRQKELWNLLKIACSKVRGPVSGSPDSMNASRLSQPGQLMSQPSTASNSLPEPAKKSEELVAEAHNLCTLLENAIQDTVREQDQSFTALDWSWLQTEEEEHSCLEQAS
T6 sequence (Q92918 whole entry): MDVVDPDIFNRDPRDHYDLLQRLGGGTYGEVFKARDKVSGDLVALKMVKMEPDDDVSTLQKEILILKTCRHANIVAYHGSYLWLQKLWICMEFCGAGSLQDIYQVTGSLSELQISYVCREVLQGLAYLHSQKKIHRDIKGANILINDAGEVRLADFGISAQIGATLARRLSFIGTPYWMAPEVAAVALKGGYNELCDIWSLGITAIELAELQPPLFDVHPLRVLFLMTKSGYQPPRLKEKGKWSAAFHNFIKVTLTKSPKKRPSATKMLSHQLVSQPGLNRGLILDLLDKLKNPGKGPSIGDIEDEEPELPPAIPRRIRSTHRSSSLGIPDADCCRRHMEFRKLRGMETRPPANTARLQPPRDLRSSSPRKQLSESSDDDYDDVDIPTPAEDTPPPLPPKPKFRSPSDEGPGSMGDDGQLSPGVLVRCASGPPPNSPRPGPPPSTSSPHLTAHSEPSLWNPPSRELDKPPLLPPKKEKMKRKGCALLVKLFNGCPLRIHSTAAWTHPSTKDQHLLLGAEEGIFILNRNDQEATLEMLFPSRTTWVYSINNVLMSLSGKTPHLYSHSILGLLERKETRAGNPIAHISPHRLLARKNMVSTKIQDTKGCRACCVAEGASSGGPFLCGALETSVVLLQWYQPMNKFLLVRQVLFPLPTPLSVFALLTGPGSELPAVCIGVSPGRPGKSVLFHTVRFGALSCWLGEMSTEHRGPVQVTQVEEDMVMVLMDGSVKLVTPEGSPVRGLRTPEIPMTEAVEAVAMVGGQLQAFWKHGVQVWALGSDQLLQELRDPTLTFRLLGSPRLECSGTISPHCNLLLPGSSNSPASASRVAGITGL
Chain of EGFR(G719C) (P00533 whole entry G719C): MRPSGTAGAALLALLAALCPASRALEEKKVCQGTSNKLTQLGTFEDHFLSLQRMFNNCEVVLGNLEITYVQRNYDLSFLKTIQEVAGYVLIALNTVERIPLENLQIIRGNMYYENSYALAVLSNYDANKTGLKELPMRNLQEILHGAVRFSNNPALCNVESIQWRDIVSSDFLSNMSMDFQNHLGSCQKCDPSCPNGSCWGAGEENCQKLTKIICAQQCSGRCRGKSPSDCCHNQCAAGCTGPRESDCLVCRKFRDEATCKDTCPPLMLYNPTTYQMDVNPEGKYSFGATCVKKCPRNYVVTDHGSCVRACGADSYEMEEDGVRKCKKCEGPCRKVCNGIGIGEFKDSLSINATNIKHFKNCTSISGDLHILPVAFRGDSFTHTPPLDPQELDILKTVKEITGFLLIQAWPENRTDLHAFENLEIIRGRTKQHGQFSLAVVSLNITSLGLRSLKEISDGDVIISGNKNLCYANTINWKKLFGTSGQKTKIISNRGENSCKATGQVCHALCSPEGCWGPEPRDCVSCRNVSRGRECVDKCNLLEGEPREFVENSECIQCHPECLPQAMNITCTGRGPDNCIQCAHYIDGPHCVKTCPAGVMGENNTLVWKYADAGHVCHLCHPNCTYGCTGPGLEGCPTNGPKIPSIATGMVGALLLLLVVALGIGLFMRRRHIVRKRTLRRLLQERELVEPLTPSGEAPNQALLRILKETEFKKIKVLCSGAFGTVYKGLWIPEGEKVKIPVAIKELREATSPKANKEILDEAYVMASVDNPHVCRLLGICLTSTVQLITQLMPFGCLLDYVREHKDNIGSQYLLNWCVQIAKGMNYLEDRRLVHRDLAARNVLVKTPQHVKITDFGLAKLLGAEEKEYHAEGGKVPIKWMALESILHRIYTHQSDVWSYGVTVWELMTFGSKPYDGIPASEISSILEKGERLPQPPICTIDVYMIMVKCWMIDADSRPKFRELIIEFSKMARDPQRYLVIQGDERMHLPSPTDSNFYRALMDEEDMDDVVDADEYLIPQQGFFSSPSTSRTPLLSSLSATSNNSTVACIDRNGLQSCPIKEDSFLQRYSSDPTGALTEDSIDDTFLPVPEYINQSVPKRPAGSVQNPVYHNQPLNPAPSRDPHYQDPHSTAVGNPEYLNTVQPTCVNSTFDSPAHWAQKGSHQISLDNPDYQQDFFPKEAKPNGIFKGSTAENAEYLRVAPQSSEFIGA
Chain of CAMKK2 (Q96RR4 whole entry): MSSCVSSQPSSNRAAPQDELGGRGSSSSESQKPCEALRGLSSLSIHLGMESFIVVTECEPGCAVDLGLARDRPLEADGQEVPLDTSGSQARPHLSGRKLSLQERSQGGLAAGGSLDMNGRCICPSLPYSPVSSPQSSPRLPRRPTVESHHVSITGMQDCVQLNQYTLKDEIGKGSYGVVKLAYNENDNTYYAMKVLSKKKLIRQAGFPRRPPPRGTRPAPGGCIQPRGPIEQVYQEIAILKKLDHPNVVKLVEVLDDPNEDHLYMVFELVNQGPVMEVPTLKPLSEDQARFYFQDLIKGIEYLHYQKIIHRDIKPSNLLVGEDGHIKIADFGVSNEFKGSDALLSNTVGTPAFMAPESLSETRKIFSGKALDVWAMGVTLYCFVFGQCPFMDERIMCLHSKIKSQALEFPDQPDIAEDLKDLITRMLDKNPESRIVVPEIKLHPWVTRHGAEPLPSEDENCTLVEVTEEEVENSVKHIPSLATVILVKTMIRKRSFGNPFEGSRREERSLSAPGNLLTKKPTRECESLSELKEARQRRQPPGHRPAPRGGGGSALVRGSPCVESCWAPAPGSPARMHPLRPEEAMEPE
Chain of PKN1 (Q16512 whole entry): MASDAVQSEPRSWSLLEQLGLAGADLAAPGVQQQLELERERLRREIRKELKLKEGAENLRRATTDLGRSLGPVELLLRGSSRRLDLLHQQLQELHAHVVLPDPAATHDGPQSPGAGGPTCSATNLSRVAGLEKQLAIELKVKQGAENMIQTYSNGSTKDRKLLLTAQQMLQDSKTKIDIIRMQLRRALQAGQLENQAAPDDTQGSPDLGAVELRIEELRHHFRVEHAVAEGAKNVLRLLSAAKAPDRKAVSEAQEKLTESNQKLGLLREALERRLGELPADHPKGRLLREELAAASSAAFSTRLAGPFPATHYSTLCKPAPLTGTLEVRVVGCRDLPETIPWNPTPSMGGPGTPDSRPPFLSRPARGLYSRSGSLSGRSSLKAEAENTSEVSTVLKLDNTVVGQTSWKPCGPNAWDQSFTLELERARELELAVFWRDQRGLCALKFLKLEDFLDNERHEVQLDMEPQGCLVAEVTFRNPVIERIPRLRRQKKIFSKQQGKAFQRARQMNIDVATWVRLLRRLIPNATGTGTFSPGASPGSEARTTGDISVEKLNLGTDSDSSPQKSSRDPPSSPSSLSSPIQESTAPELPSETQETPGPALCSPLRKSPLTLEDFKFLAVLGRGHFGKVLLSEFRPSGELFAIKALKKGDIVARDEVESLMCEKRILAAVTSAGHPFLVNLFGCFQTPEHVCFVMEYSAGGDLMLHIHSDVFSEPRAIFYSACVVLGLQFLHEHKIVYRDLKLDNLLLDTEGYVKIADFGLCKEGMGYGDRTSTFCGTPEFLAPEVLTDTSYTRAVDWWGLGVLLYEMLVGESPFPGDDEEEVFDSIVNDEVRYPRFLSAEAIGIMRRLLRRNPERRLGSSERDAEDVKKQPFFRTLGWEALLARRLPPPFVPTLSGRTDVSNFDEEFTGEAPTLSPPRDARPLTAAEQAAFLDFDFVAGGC

Row | Compound | remaining binding at 10 µM (KIT(A829P)) | remaining binding at 10 µM (ERK8) | remaining binding at 10 µM (TGFBR1) | remaining binding at 10 µM (TRKA) | remaining binding at 10 µM (PRKD2) | remaining binding at 10 µM (ACVR2B) | remaining binding at 10 µM (PLK2) | remaining binding at 10 µM (PIM2) | remaining binding at 10 µM (EPHB2) | remaining binding at 10 µM (CSK) | remaining binding at 10 µM (CAMKK2) | remaining binding at 10 µM (IKK-beta) | remaining binding at 10 µM [1] | remaining binding at 10 µM [2] | remaining binding at 10 µM (FGFR4) | remaining binding at 10 µM (EGFR(G719C)) | remaining binding at 10 µM (PKN1) | remaining binding at 10 µM (HPK1) | remaining binding at 10 µM (AURKB) | remaining binding at 10 µM (TIE2) | further results
1 | COc1ccc(-c2cnccc2-c2cnc(NC(=O)C(C)C)s2)c(C(F)(F)F)c1 [CRT0105446, N-{5-[3-(4-Methoxy-2-trifluoromethyl-phenyl)-pyridin-4-yl]-hiazol-2-yl}-isobutyramide] | 100% | 1.4% | 99% | 70% | 74% | 100% | 99% | 100% | 100% | 91% | 95% | 88% | 92% | 100% | 90% | 89% | 62% | 100% | 80% | 87% | remaining binding at 10 µM (STK36): 57%; remaining binding at 10 µM (MEK6): 100%; remaining binding at 10 µM (NEK2): 100%
2 | Cc1ccc(-c2cnccc2-c2cnc(Nc3ccc(O)cc3)s2)c(Cl)c1 [CRT0105950, 4-{5-[3-(2-Chloro-4-methyl-phenyl)-pyridin-4-yl]-thiazol-2-ylamino}-phenol] | 35% | 1.6% | 74% | 1% | 26% | 32% | 9% | 100% | 81% | 71% | 43% | 88% | 74% | 19% | 29% | 71% | 20% | 22% | 0.15% | 44% | remaining binding at 10 µM (STK36): 17%; remaining binding at 10 µM (MEK6): 20%; remaining binding at 10 µM (NEK2): 82%
